Results reported in US8263598B2, “Substituted sulfonamide compounds” (Gruenenthal GmbH, priority 2008, dated 2012).

Tests used:
[1] = target: T1, human B1R receptor (hB1R) (Homo sapiens, UniProt P46663); assay: FLIPR Ca2+ assay on human bradykinin 1 receptor (CHO K1 hB1R cells); format: cell-based; settings: test substance 10 μM; CHO K1 cells with human B1R gene; agonist Lys-Des-Arg9-bradykinin 0.5 nM; compared to maximum achievable inhibition
T1 construct: host or cells: CHO K1 cells
T1 sequence (P46663 1-353): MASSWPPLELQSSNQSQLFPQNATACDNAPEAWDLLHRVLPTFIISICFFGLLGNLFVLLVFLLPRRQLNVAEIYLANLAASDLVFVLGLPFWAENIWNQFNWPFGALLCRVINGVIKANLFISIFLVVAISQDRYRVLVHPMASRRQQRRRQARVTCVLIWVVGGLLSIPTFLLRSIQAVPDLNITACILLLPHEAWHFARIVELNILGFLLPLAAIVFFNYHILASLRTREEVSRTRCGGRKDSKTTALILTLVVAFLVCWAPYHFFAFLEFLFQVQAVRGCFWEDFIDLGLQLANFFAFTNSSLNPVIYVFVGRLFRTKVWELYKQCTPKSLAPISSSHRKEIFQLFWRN
How it was run: (§1)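 CHO K1 cells stably expressing human or rat B1R were loaded with Fluo-4 and tested at 10 μM compound. Ca²⁺ signal was read in FLIPR as % activation versus agonist. After 10 min, agonist was added (hB1R: Lys-Des-Arg9-bradykinin 0.5 nM; rB1R: Des-Arg9-bradykinin 100 nM), and % inhibition was taken relative to maximum achievable inhibition.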

[2] = target: T2, B1R receptor of rats (rB1R) (Rattus norvegicus, UniProt P97583); assay: FLIPR Ca2+ assay on rat bradykinin 1 receptor (CHO K1 rB1R cells); format: cell-based; settings: test substance 10 μM; CHO K1 cells with B1R gene of rats; agonist Des-Arg9-bradykinin 100 nM; compared to maximum achievable inhibition
T2 construct: host or cells: CHO K1 cells
T2 sequence (P97583 1-337): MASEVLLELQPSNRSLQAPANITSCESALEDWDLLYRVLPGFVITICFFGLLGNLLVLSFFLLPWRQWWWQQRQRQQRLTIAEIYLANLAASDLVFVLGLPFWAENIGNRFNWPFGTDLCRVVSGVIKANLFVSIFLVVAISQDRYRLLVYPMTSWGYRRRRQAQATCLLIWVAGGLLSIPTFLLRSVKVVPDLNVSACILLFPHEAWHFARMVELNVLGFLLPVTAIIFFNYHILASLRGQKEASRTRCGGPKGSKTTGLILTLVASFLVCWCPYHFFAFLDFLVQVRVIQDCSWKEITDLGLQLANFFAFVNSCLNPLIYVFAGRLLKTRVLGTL
How it was run: as §1

COc1cc(C)c(S(=O)(=O)N(C)CCOCC(=O)N2CCn3cccc3C2c2ccc(F)c(F)c2)c(C)c1 (centres unmarked) [Example 57, N-(2-(2-(1-(3,4-difluorophenyl)-3,4-dihydropyrrolo[1,2-a]pyrazin-2(1H)-yl)-2-oxoethoxy)ethyl)-4-methoxy-N,2,6-trimethylbenzenesulfonamide]
inhibition at 10 µM [1]: 102%
inhibition at 10 µM [2]: 99%

COc1cc(C)c(S(=O)(=O)N(C)CCOCC(=O)N2CCn3cccc3C2c2ccc(C)c(C)c2)c(C)c1 (centres unmarked) [Example 58, N-(2-(2-(1-(3,4-dimethylphenyl)-3,4-dihydropyrrolo[1,2-a]pyrazin-2(1H)-yl)-2-oxoethoxy)ethyl)-4-methoxy-N,2,6-trimethylbenzenesulfonamide]
inhibition at 10 µM [1]: 102%
inhibition at 10 µM [2]: 97%

COc1cc(C)c(S(=O)(=O)N(C)CCOCC(=O)N2CCn3cccc3C2c2cccc(F)c2)c(C)c1 (centres unmarked) [Example 59, N-(2-(2-(1-(3-fluorophenyl)-3,4-dihydropyrrolo[1,2-a]pyrazin-2(1H)-yl)-2-oxoethoxy)ethyl)-4-methoxy-N,2,6-trimethylbenzenesulfonamide]
inhibition at 10 µM [1]: 95%
inhibition at 10 µM [2]: 99%

COc1cc(C)c(S(=O)(=O)N(C)CCOCC(=O)N2CCn3cccc3C2c2cccs2)c(C)c1 (centres unmarked) [Example 60, 4-Methoxy-N,2,6-trimethyl-N-(2-(2-oxo-2-(1-(thiophen-2-yl)-3,4-dihydropyrrolo[1,2-a]pyrazin-2(1H)-yl)ethoxy)ethyl)benzenesulfonamide]
inhibition at 10 µM [1]: 100%
inhibition at 10 µM [2]: 98%

COc1cc(C)c(S(=O)(=O)N(C)CCOCC(=O)N2CCn3cccc3C2c2cccc(C(F)(F)F)c2)c(C)c1 (centres unmarked) [Example 61, 4-methoxy-N,2,6-trimethyl-N-(2-(2-oxo-2-(1-(3-(trifluoromethyl)phenyl)-3,4-dihydropyrrolo[1,2-a]pyrazin-2(1H)-yl)ethoxy)ethyl)benzenesulfonamide]
inhibition at 10 µM [1]: 100%
inhibition at 10 µM [2]: 99%

COc1cccc(C2c3cccn3CCN2C(=O)COCCN(C)S(=O)(=O)c2c(C)cc(OC)cc2C)c1 (centres unmarked) [Example 62, 4-methoxy-N-(2-(2-(1-(3-methoxyphenyl)-3,4-dihydropyrrolo[1,2-a]pyrazin-2(1H)-yl)-2-oxoethoxy)ethyl)-N,2,6-trimethylbenzenesulfonamide]
inhibition at 10 µM [1]: 101%
inhibition at 10 µM [2]: 98%

COc1cc(C)c(S(=O)(=O)N(C)CCOCC(=O)N2CCn3cccc3C2c2ccc(C(F)(F)F)cc2F)c(C)c1 (centres unmarked) [Example 63, N-(2-(2-(1-(2-fluoro-4-(trifluoromethyl)phenyl)-3,4-dihydropyrrolo[1,2-a]pyrazin-2(1H)-yl)-2-oxoethoxy)ethyl)-4-methoxy-N,2,6-trimethylbenzene-sulfonamide]
inhibition at 10 µM [1]: 102%
inhibition at 10 µM [2]: 100%

COc1cc(C)c(S(=O)(=O)N(C)CCOCC(=O)N2CCn3cccc3C2c2ccc(C(C)(C)C)cc2)c(C)c1 (centres unmarked) [Example 64, N-(2-(2-(1-(4-tert-butylphenyl)-3,4-dihydropyrrolo[1,2-a]pyrazin-2(1H)-yl)-2-oxoethoxy)ethyl)-4-methoxy-N,2,6-trimethylbenzenesulfonamide]
inhibition at 10 µM [1]: 100%
inhibition at 10 µM [2]: 99%

Cc1cc(C)c(S(=O)(=O)N(C)CCOCC(=O)N2CCn3cccc3C2C(C)(C)C)c(C)c1 (centres unmarked) [Example 65, N-(2-(2-(1-tert-butyl-3,4-dihydropyrrolo[1,2-a]pyrazin-2(1H)-yl)-2-oxoethoxy)ethyl)-N,2,4,6-tetramethylbenzenesulfonamide]
inhibition at 10 µM [1]: 101%
inhibition at 10 µM [2]: 99%

Cc1cc(C)c(S(=O)(=O)N(C)CCOCC(=O)N2CCn3cccc3C2C)c(C)c1 (centres unmarked) [Example 66, N,2,4,6-tetramethyl-N-(2-(2-(1-methyl-3,4-dihydropyrrolo[1,2-a]pyrazin-2(1H)-yl)-2-oxoethoxy)ethyl)benzenesulfonamide]
inhibition at 10 µM [1]: 87%
inhibition at 10 µM [2]: 92%

Cc1cc(C)c(S(=O)(=O)N(C)CCOCC(=O)N2CCn3cccc3C2c2cccnc2)c(C)c1 (centres unmarked) [Example 67, N,2,4,6-tetramethyl-N-(2-(2-oxo-2-(1-(pyridin-3-yl)-3,4-dihydropyrrolo[1,2-a]pyrazin-2(1H)-yl)ethoxy)ethyl)benzenesulfonamide]
inhibition at 10 µM [1]: 99%
inhibition at 10 µM [2]: 100%

Cc1cc(C)c(S(=O)(=O)N(C)CCOCC(=O)N2CCn3cccc3C2c2ccc(Cl)nc2)c(C)c1 (centres unmarked) [Example 68, N-(2-(2-(1-(6-chloropyridin-3-yl)-3,4-dihydropyrrolo[1,2-a]pyrazin-2(1H)-yl)-2-oxoethoxy)ethyl)-N,2,4,6-tetramethylbenzenesulfonamide]
inhibition at 10 µM [1]: 101%
inhibition at 10 µM [2]: 100%

COc1ccc(C2c3cccn3CCN2C(=O)COCCN(C)S(=O)(=O)c2c(C)cc(C)cc2C)cc1 (centres unmarked) [Example 69, N-(2-(2-(1-(4-methoxyphenyl)-3,4-dihydropyrrolo[1,2-a]pyrazin-2(1H)-yl)-2-oxoethoxy)ethyl)-N,2,4,6-tetramethylbenzenesulfonamide]
inhibition at 10 µM [1]: 101%
inhibition at 10 µM [2]: 100%

Cc1cc(C)c(S(=O)(=O)N(C)CCOCC(=O)N2CCn3cccc3C2c2ccccc2)c(C)c1 (centres unmarked) [Example 70, N,2,4,6-tetramethyl-N-(2-(2-oxo-2-(1-phenyl-3,4-dihydropyrrolo[1,2-a]pyrazin-2(1H)-yl)ethoxy)ethyl)benzenesulfonamide]
inhibition at 10 µM [1]: 101%
inhibition at 10 µM [2]: 99%

Cc1cc(C)c(S(=O)(=O)N(C)CCOCC(=O)N2CCn3cccc3C2c2ccc(F)c(F)c2)c(C)c1 (centres unmarked) [Example 71, N-(2-(2-(1-(3,4-difluorophenyl)-3,4-dihydropyrrolo[1,2-a]pyrazin-2(1H)-yl)-2-oxoethoxy)ethyl)-N,2,4,6-tetramethylbenzenesulfonamide]
inhibition at 10 µM [1]: 95%
inhibition at 10 µM [2]: 95%

Cc1cc(C)c(S(=O)(=O)N(C)CCOCC(=O)N2CCn3cccc3C2c2ccc(C)c(C)c2)c(C)c1 (centres unmarked) [Example 72, N-(2-(2-(1-(3,4-dimethylphenyl)-3,4-dihydropyrrolo[1,2-a]pyrazin-2(1H)-yl)-2-oxoethoxy)ethyl)-N,2,4,6-tetramethylbenzenesulfonamide]
inhibition at 10 µM [1]: 97%
inhibition at 10 µM [2]: 71%

Cc1cc(C)c(S(=O)(=O)N(C)CCOCC(=O)N2CCn3cccc3C2c2cccc(F)c2)c(C)c1 (centres unmarked) [Example 73, N-(2-(2-(1-(3-fluorophenyl)-3,4-dihydropyrrolo[1,2-a]pyrazin-2(1H)-yl)-2-oxoethoxy)ethyl)-N,2,4,6-tetramethylbenzenesulfonamide]
inhibition at 10 µM [1]: 102%
inhibition at 10 µM [2]: 99%

Cc1cc(C)c(S(=O)(=O)N(C)CCOCC(=O)N2CCn3cccc3C2c2cccs2)c(C)c1 (centres unmarked) [Example 74, N,2,4,6-tetramethyl-N-(2-(2-oxo-2-(1-(thiophen-2-yl)-3,4-dihydropyrrolo[1,2-a]pyrazin-2(1H)-yl)ethoxy)ethyl)benzenesulfonamide]
inhibition at 10 µM [1]: 99%
inhibition at 10 µM [2]: 102%

Cc1cc(C)c(S(=O)(=O)N(C)CCOCC(=O)N2CCn3cccc3C2c2cccc(C(F)(F)F)c2)c(C)c1 (centres unmarked) [Example 75, N,2,4,6-tetramethyl-N-(2-(2-oxo-2-(1-(3-(trifluoromethyl)phenyl)-3,4-dihydropyrrolo[1,2-a]pyrazin-2(1H)-yl)ethoxy)ethyl)benzenesulfonamide]
inhibition at 10 µM [1]: 63%
inhibition at 10 µM [2]: 48%

COc1cccc(C2c3cccn3CCN2C(=O)COCCN(C)S(=O)(=O)c2c(C)cc(C)cc2C)c1 (centres unmarked) [Example 76, N-(2-(2-(1-(3-methoxyphenyl)-3,4-dihydropyrrolo[1,2-a]pyrazin-2(1H)-yl)-2-oxoethoxy)ethyl)-N,2,4,6-tetramethylbenzenesulfonamide]
inhibition at 10 µM [1]: 101%
inhibition at 10 µM [2]: 97%

Cc1cc(C)c(S(=O)(=O)N(C)CCOCC(=O)N2CCn3cccc3C2c2ccc(C(F)(F)F)cc2F)c(C)c1 (centres unmarked) [Example 77, N-(2-(2-(1-(2-fluoro-4-(trifluoromethyl)phenyl)-3,4-dihydropyrrolo[1,2-a]pyrazin-2(1H)-yl)-2-oxoethoxy)ethyl)-N,2,4,6-tetramethylbenzenesulfonamide]
inhibition at 10 µM [1]: 71%
inhibition at 10 µM [2]: 53%

Cc1cc(C)c(S(=O)(=O)N(C)CCOCC(=O)N2CCn3cccc3C2c2ccc(C(C)(C)C)cc2)c(C)c1 (centres unmarked) [Example 78, N-(2-(2-(1-(4-tert-butylphenyl)-3,4-dihydropyrrolo[1,2-a]pyrazin-2(1H)-yl)-2-oxoethoxy)ethyl)-N,2,4,6-tetramethylbenzenesulfonamide]
inhibition at 10 µM [1]: 32%
inhibition at 10 µM [2]: 77%
